Laboratory results as given in PubChem BioAssay (NCI).
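Briefly, cells in 96-well plates were exposed to five compound concentrations for 48 h, and endpoints were estimated by linear interpolation. GI50 = concentration required for 50% inhibition of growth. TGI: total growth inhibition.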

Legend:
Experiment in all cases: DTP human tumour cell line panel, 48 h
[1] = tested on: SR leukemia
[2] = tested on: HCC-2998 colon
[3] = tested on: NCI-H460 lung
[4] = tested on: MDA-MB-231 breast
[5] = tested on: CCRF-CEM leukemia
[6] = tested on: HOP-62 NSCLC
[7] = tested on: MCF7 breast
[8] = tested on: UO-31 renal
[9] = tested on: HL-60(TB) leukemia
[10] = tested on: CAKI-1 renal
[11] = tested on: IGROV1 ovarian
[12] = tested on: HCT-15 colon
[13] = tested on: K-562 leukemia
[14] = tested on: ACHN renal
[15] = tested on: UACC-257 melanoma
[16] = tested on: SK-MEL-5 melanoma
[17] = tested on: U251 CNS
[18] = tested on: HOP-92 NSCLC
[19] = tested on: TK-10 renal
[20] = tested on: OVCAR-4 ovarian
[21] = tested on: BT-549 breast
[22] = tested on: NCI-H23 lung
[23] = tested on: MOLT-4 leukemia
[24] = tested on: MALME-3M melanoma
[25] = tested on: NCI-H522 lung
[26] = tested on: SW-620 colon
[27] = tested on: DU-145 prostate
[28] = tested on: SK-OV-3 ovarian
[29] = tested on: HCT-116 colon
[30] = tested on: SN12C renal
[31] = tested on: PC-3 prostate
[32] = tested on: RXF 393 renal
[33] = tested on: MDA-MB-435
[34] = tested on: COLO 205 colon
[35] = tested on: LOX IMVI melanoma
[36] = tested on: SK-MEL-28 melanoma
[37] = tested on: A549 NSCLC
[38] = tested on: 786-0 renal
[39] = tested on: SF-295 CNS
[40] = tested on: EKVX NSCLC
[41] = tested on: SNB-19 CNS
[42] = tested on: SK-MEL-2 melanoma
[43] = tested on: KM12 colon
[44] = tested on: OVCAR-5 ovarian
[45] = tested on: OVCAR-3 ovarian
[46] = tested on: NCI-H226 lung
[47] = tested on: T-47D breast
[48] = tested on: OVCAR-8 ovarian
[49] = tested on: A498 renal
[50] = tested on: SNB-75 CNS
[51] = tested on: HT29 colon
[52] = tested on: HS 578T breast
[53] = tested on: SF-268 CNS
[54] = tested on: SF-539 CNS
[55] = tested on: NCI/ADR-RES ovarian
[56] = tested on: UACC-62 melanoma
[57] = tested on: RPMI-8226 leukemia
[58] = tested on: M14 melanoma

For `COc1cc(/C=C/C(=O)C(=Cc2ccc(F)c(F)c2)C(=O)/C=C/c2ccc(O)c(OC)c2)ccc1O`, the GI50 [1] was 2.83 µM, the TGI [1] was 9.2 µM and the GI50 [2] was 1.98 µM. The TGI [2] was 3.79 µM, the GI50 [3] was 2.68 µM and the TGI [3] was 6.96 µM. It also gave a GI50 [4] of 3.48 µM, a TGI [4] of 16.7 µM and a GI50 [5] of 2.46 µM. For the same compound, the TGI [5] was greater than 100 µM, the GI50 [6] was 2.87 µM and the TGI [6] was 9.38 µM. It also gave a GI50 [7] of 2.57 µM, a TGI [7] of 11 µM and a GI50 [8] of 3.04 µM. For the same compound, the TGI [8] was 16.8 µM, the GI50 [9] was 2.67 µM and the TGI [9] was 6.85 µM. The GI50 [10] was 3.51 µM, the TGI [10] was 20.2 µM and the GI50 [11] was 3.82 µM. The TGI [11] was 67.9 µM, the GI50 [12] was 2.82 µM and the TGI [12] was 10.1 µM. The GI50 [13] was 3.16 µM, the TGI [13] was 32.8 µM and the GI50 [14] was 3.27 µM. The TGI [14] was 19.9 µM, the GI50 [15] was 1.78 µM and the TGI [15] was 4.37 µM. The GI50 [16] was 2.18 µM, the TGI [16] was 5.3 µM and the GI50 [17] was 1.7 µM. The TGI [17] was 3.51 µM, the GI50 [18] was 2.51 µM and the TGI [18] was 6.05 µM. The GI50 [19] was 2.67 µM, the TGI [19] was 8.37 µM and the GI50 [20] was 2.96 µM. The TGI [20] was 10.7 µM, the GI50 [21] was 2.68 µM and the TGI [21] was 7.13 µM. For the same compound, the GI50 [22] was 2.8 µM, the TGI [22] was 8.56 µM and the GI50 [23] was 2.75 µM. For the same compound, the TGI [23] was greater than 100 µM, the GI50 [24] was 5.61 µM and the TGI [24] was 37.3 µM. For the same compound, the GI50 [25] was 1.45 µM, the TGI [25] was 3.12 µM and the GI50 [26] was 1.84 µM. The TGI [26] was 3.62 µM, the GI50 [27] was 2.1 µM and the TGI [27] was 5.27 µM. It also gave a GI50 [28] of 3.45 µM, a TGI [28] of 12.5 µM and a GI50 [29] of 1.79 µM. The TGI [29] was 4.01 µM, the GI50 [30] was 2.65 µM and the TGI [30] was 7.86 µM. It also gave a GI50 [31] of 2.49 µM, a TGI [31] of 8.31 µM and a GI50 [32] of 1.74 µM. For the same compound, the TGI [32] was 3.2 µM, the GI50 [33] was 2.93 µM and the TGI [33] was 10.2 µM. It also gave a GI50 [34] of 2.26 µM, a TGI [34] of 4.74 µM and a GI50 [35] of 1.95 µM. It also gave a TGI [35] of 4.48 µM, a GI50 [36] of 1.87 µM and a TGI [36] of 3.8 µM. It also gave a GI50 [37] of 3.34 µM, a TGI [37] of 16.9 µM and a GI50 [38] of 2.32 µM. For the same compound, the TGI [38] was 5.5 µM, the GI50 [39] was 3.63 µM and the TGI [39] was 25.1 µM. It also gave a GI50 [40] of 4.61 µM, a TGI [40] of 18.3 µM and a GI50 [41] of 3.54 µM. The TGI [41] was 15.9 µM, the GI50 [42] was 1.81 µM and the TGI [42] was 3.58 µM. It also gave a GI50 [43] of 1.64 µM, a TGI [43] of 3.19 µM and a GI50 [44] of 3.25 µM. It also gave a TGI [44] of 14.3 µM, a GI50 [45] of 1.91 µM and a TGI [45] of 4.78 µM. It also gave a GI50 [46] of 3.39 µM, a TGI [46] of 12.1 µM and a GI50 [47] of 2.31 µM. For the same compound, the TGI [47] was 7.7 µM, the GI50 [48] was 2.93 µM and the TGI [48] was 11.1 µM. It also gave a GI50 [49] of 2 µM, a TGI [49] of 6.95 µM and a GI50 [50] of 1.91 µM. The TGI [50] was 5.97 µM, the GI50 [51] was 1.72 µM and the TGI [51] was 3.63 µM. The GI50 [52] was 3.25 µM, the TGI [52] was 15.4 µM and the GI50 [53] was 2.74 µM. For the same compound, the TGI [53] was 12.5 µM, the GI50 [54] was 3.26 µM and the TGI [54] was 13.6 µM. The GI50 [55] was 4.06 µM, the TGI [55] was greater than 100 µM and the GI50 [56] was 1.93 µM. It also gave a TGI [56] of 5.14 µM, a GI50 [57] of 2.44 µM and a TGI [57] of 8.29 µM.

With `CCCS(=O)(=O)O` the TGI [1] was greater than 100 µM, the TGI [58] was greater than 100 µM and the TGI [3] was greater than 100 µM. The TGI [4] was greater than 100 µM, the TGI [5] was greater than 100 µM and the TGI [6] was greater than 100 µM. For the same compound, the TGI [7] was greater than 100 µM, the TGI [8] was greater than 100 µM and the TGI [9] was greater than 100 µM. It also gave a TGI [10] greater than 100 µM, a TGI [11] greater than 100 µM and a TGI [12] greater than 100 µM. For the same compound, the TGI [13] was greater than 100 µM, the TGI [14] was greater than 100 µM and the TGI [15] was greater than 100 µM. The TGI [16] was greater than 100 µM, the TGI [17] was greater than 100 µM and the TGI [18] was greater than 100 µM. It also gave a TGI [19] greater than 100 µM, a TGI [20] greater than 100 µM and a TGI [21] greater than 100 µM. It also gave a TGI [22] greater than 100 µM, a TGI [23] greater than 100 µM and a TGI [24] greater than 100 µM. For the same compound, the TGI [25] was greater than 100 µM, the TGI [26] was greater than 100 µM and the TGI [27] was greater than 100 µM. For the same compound, the TGI [28] was greater than 100 µM, the TGI [31] was greater than 100 µM and the TGI [32] was greater than 100 µM. For the same compound, the TGI [33] was greater than 100 µM, the TGI [34] was greater than 100 µM and the TGI [35] was greater than 100 µM. For the same compound, the TGI [36] was greater than 100 µM, the TGI [37] was greater than 100 µM and the TGI [39] was greater than 100 µM. For the same compound, the TGI [40] was greater than 100 µM, the TGI [41] was greater than 100 µM and the TGI [42] was greater than 100 µM. The TGI [43] was greater than 100 µM, the TGI [44] was greater than 100 µM and the TGI [45] was greater than 100 µM. It also gave a TGI [46] greater than 100 µM, a TGI [47] greater than 100 µM and a TGI [48] greater than 100 µM. For the same compound, the TGI [49] was greater than 100 µM, the TGI [50] was greater than 100 µM and the TGI [51] was greater than 100 µM. The TGI [52] was greater than 100 µM, the TGI [53] was greater than 100 µM and the TGI [54] was greater than 100 µM. For the same compound, the TGI [55] was greater than 100 µM, the TGI [56] was greater than 100 µM and the TGI [57] was greater than 100 µM.
